Here are results for 17 molecules from patent US6100254A, “Inhibitors of protein tyrosine kinases” (Board of Regents, The University of Texas System, priority 1997, dated 2000).

Counter-ions that a name gives are not always drawn. *1 amine or outer side, *2 acyl side, *3 side chain or, on linkers, in order; H or OH if unused. Where a SMILES comes first, the peptide text is derived from it. Bridges are numbered along the chain shown (N, C = ends). Roman numbers before positions name the chains, in order. [ ]: non-standard residue; d: D form. Actinocin(9to1) = Cc1c2oc3c(C)ccc(C(=O)[*:1])c3nc-2c(C(=O)[*:2])c(N)c1=O; NMeV = CN[C@H](C(=O)O)C(C)C; Sar = CNCC(=O)O

The conditions of series [1]: oral administration, multiple myeloma; cited from earlier work.
The conditions of series [2]: cited from earlier work; for elimination half-life: intravenous.
For series [3] the following is noted: previously untreated chronic myelogenous leukemia; cited from earlier work.
A further series addresses T1, Lck (p56^lck) (Mus musculus, UniProt P06240).
T1 construct: glutathione-S-transferase (GST) (N); made in house; host or cells: E. coli
The series is described as follows: Lck tyrosine kinase activity, poly E4Y and 32P-ATP. It counts as biochemical. The source says:
(§1) The genes encoding Csk, Lck, Abl, and the FGF receptor have all been cloned. The genes encoding Csk, Abl, and the FGF receptor were cloned from humans, and the genes encoding Lck were cloned from a mouse. Recombinant Csk, Lck, Abl, and the FGFr were expressed as glutathione-S-transferase fusion proteins using the pGEX expression vector and E. coli, and purified as described (Sun et al., 1995).
(§2) Recombinant Src was expressed using the baculovirus-insect cell system and purified as published (Budde et al, 1993). Recombinant Csk, Lck, Abl, and the FGFr were expressed as glutathione-S-transferase fusion proteins using the pGEX expression vector and E. coli, and purified as described (Sun and Budde, 1995).
(§3) The tyrosine kinase activity of Src, Lck (p56^lck), Csk (C-Src kinase), Abl (Bcr-Abl catalytic domain), and the FGFr (fibroblast growth factor receptor catalytic domain), was determined using poly E4 Y and ^32 P-ATP.

For series [4], the target named is T2, Src (Homo sapiens, UniProt P12931).
T2 construct: made in house; host or cells: baculovirus-insect cell system
T2 sequence (P12931 whole entry, species assumed): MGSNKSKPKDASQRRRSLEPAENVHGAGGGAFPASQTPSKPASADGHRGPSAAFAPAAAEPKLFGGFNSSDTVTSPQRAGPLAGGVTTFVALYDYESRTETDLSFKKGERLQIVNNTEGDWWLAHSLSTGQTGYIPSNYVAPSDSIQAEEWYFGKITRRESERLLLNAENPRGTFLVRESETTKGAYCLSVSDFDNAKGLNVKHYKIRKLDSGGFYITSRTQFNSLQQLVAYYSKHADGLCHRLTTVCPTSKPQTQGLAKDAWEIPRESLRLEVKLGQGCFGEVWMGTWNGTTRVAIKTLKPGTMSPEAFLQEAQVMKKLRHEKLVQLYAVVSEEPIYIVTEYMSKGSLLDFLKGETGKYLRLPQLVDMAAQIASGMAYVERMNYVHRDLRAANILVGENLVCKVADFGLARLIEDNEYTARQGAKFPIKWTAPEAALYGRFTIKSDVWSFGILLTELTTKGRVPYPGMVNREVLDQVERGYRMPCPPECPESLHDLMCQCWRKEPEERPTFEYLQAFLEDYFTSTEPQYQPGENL
The series is described as follows: Src tyrosine kinase activity, poly E4Y and 32P-ATP. It is filed as biochemical. On the procedure: The compounds within the library were screened at a concentration of 100 μM using the following assay procedure. A 10 μL aliquot of poly(Glu:Tyr, 4:1) to final concentration of 200 μg/mL, 20 μL of benzodiazepine to be tested, 10 μL of purified Src and 10 μL of [gamma-^32 P]-ATP-MgCl2 cocktail (final concentration of 0.2 mM ATP; specific activity of 600 dpm/pmol, and 6 mM MgCl2) were mixed and incubated in 0.5 mL test tubes at ambient temperature. After 30 min, a 35 μL aliquot was spotted onto a 1×1 inch 3 MM filter paper and dropped into a 5% TCA bath at 60° C. The filter papers were washed 3 times with 5% TCA and air dried. The filter papers were then placed into a vial, 3 mL scintillation cocktail added, and analyzed by liquid scintillation counting.
as §3

The target in series [5] is FGFr (fibroblast growth factor receptor catalytic domain). The series is described as follows: FGFr tyrosine kinase activity, poly E4Y and 32P-ATP. It is filed as biochemical, human.
Source text: as §1, §2, §3

Series [6] concerns AFB-13 normal human fibroblasts. Nature of the series: Growth of AFB-13 cells, control for cellular toxicity. It is filed as cell-based. To be noted: Homo sapiens, Fibroblast, 120 h, viable cell count 5 days after plating. How it is done:
(§4) For these assays 2×10^4 cells are plated in 24 well multiwell tissue culture dishes, in 1 ml of DME/F12 media supplemented with 5% fetal bovine serum. After 24 h, media is replaced with fresh media containing the concentration of inhibitor to be tested, or no inhibitor as a control. Cells are counted 1, 3, and 5 days subsequent to addition of inhibitor. For the day 5 counts, media with fresh inhibitor is used to replace spent media after day 3. […] For counting viable cells, cultures are trypsinized, stained with trypan blue, and cell number determined by counting under light microscopy with the use of a hemacytometer. Benzodiazepine derivatives were tested at their maximally soluble concentrations in 0.1% DMSO diluted with tissue culture medium, and serial dilutions were made thereof. Every concentration tested was performed in triplicate, in identical wells under identical assay conditions.

The test system of series [7] is HT-29 colon adenocarcinoma cells. Nature of the series: Growth of HT-29 cells, viable cell count. It counts as cell-based, human. To be noted: viable cell count 5 days after plating. On the procedure: as §4
The test system is the same in series [8]. The series is described as follows: Anchorage-independent growth, soft agar colony formation. It is filed as cell-based, human. To be noted: Homo sapiens, HT-29, 336 h, colonies ≥100 cells 14 days after plating. On the procedure:
Soft agar colony formation is used to determine anchorage independent growth, an in vitro parameter which correlates well with tumorigenicity of HT 29 cells. (AFB-13 cells are unable to form soft agar colonies, a characteristic of normal cells). These assays are performed in 6 well ([…]) multiwell tissue culture dishes. The wells are underlayed with 1% low melting agarose in complete growth media, and refrigerated for 15 min. 1×10^3 HT 29 cells are then added to the wells in complete media in 0.5% low melting agarose. […] After a 24 h incubation period, 0.5 mL of media containing compound to be tested (or media alone as a control) is added to the dish. During the assay, media with or without the test compound is replenished every 3 days. Colonies estimated to contain >100 cells are counted after 14 days. For compounds that induce growth inhibition, the assay is continued to 28 days to assure that differences in colony forming ability were not due to altered growth rate of cells. For initial screening, assays are performed in duplicate for each compound to be tested, due to the large amount of inhibitor required for the length of the study.

In another series the target is T3, Csk (C-Src kinase) (Homo sapiens, UniProt P41240).
T3 construct: glutathione-S-transferase (GST) (N); made in house; host or cells: E. coli
T3 sequence (P41240 whole entry): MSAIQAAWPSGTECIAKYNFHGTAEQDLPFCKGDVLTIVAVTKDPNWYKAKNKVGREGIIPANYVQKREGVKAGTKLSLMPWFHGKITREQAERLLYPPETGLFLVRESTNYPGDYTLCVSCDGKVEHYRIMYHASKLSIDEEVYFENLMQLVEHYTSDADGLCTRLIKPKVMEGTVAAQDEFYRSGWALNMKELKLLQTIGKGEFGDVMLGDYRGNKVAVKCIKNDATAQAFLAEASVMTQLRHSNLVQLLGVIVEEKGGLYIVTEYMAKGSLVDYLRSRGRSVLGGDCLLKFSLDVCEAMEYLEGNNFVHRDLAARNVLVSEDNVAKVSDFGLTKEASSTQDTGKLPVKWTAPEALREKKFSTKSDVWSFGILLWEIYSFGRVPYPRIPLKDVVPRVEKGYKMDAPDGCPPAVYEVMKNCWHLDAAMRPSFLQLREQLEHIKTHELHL
Nature of the series: Csk tyrosine kinase activity, poly E4Y and 32P-ATP. It counts as biochemical.
Source text: as §1, §2, §3

A further series deals with protein kinase A (PKA) (Homo sapiens, UniProt P17612). Nature of the series: Enzyme panel: protein kinase A. It is filed as biochemical.
For series [9] the following is noted: cited from earlier work.
The conditions of series [10]: human, in vivo; cited from earlier work.
The target of series [11] is Src. The note with it: Table 10, published peptides as inhibitors of Src; cited from earlier work.

T1 sequence (P06240 whole entry): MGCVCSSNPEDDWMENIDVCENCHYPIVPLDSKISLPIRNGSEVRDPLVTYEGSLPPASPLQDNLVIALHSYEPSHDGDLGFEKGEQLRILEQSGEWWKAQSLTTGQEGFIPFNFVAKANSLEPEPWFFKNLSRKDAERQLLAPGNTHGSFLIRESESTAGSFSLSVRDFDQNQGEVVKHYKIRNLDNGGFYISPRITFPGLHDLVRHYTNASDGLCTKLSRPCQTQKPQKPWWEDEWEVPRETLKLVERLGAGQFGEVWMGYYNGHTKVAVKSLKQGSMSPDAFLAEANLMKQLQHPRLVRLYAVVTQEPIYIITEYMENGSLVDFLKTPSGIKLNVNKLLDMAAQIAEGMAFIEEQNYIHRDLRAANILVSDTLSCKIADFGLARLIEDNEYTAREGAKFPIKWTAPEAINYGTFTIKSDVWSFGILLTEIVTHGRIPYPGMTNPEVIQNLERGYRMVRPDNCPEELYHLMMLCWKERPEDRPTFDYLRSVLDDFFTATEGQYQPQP

On to “4-[bis(2-chloroethyl)amino]-L-phenylalanine [Melphalan]”, for which, in [1], the “patients showing a favorable response” value is “one third to one half”.
Take `Cc1c2oc3c(C)ccc(C(=O)N[C@@H]4C(=O)N[C@H](C(C)C)C(=O)N5CCC[C@H]5C(=O)N(C)CC(=O)N(C)[C@@H](C(C)C)C(=O)O[C@@H]4C)c3nc-2c(C(=O)N[C@@H]2C(=O)N[C@H](C(C)C)C(=O)N3CCC[C@H]3C(=O)N(C)CC(=O)N(C)[C@@H](C(C)C)C(=O)O[C@@H]2C)c(N)c1=O` [Actinomycin D] (I: T[dV]P[Sar][NMeV] / II: T[dV]P[Sar][NMeV]; ester I:1-I:C, II:1-II:C; linker I:N-II:N via Actinocin(9to1)): in series [2] (in vivo), the “dose excreted intact into the bile” value is recorded as “Half” and the “passage of the blood-brain barrier” value is listed as “does not pass the blood-brain barrier”.
In the case of `CS(=O)(=O)OCCCCOS(C)(=O)=O` [Busulfan, 1,4-butanediol dimethanesulfonate], the “adults obtaining hematologic remission” value in series [3] is given as “Approximately 90%”.
Consider `O=C(O)CCCc1ccc(N(CCCl)CCCl)cc1` [Chlorambucil, 4-[bis(2-chlorethyl)amino]benzenebutanoic acid], for which, in series [2] (single oral doses of 0.6-[…]), the “terminal half-life of the parent drug” value is 1.5 h.
Turning to `N.N.[Cl][Pt][Cl]` [Cisplatin], the oral absorption entry in series [2] (in vivo) was “not absorbed orally”.
As for `O=C1[C@@H](Cc2ccc(O)cc2)N=C(c2ccc(O)cc2)c2cc(Cl)ccc2N1Cc1ccc(-c2ccccc2)cc1` [D-Tyr,BnzPh, 7-chloro-1,3-dihydro-1-(-4-biphenylmethyl)-3-(-4-hydroxyphenylmethyl)-5-(4-hydroxyphenyl)-(2H)1,4-benzodiazepin-2-one], the IC50 came out at 640 µM at Lck (p56^lck); 97 µM at Src [4]; 335 µM in series [5]; 404 µM on Csk (C-Src kinase); 54 µM at protein kinase A (PKA). Also, the Ki on Src [4] (Table 10, benzodiazepines as inhibitors of Src) is 43 µM. Also, the activity at 3 µM in series [6] (3 μM) came out at 89 ± 6%; in series [7] (Homo sapiens, HT-29, 120 h, 3 μM) it was 94 ± 9%; in series [8] (3 μM) it was 94%. For the same molecule, the activity at 16 µM was found to be 100 ± 4% in [6] (16 μM); 74 ± 5% in series [7] (Homo sapiens, HT-29, 120 h, 16 μM); 90% in [8] (16 μM). Besides, the activity at 32 µM in [6] (32 μM) is 100 ± 7%; in series [8] (32 μM), 100%. Moreover, the “HT-29 Growth” value in series [7] (32 μM) is reported as “cytotoxic”.
As for `COc1cccc2c1C(=O)c1c(O)c3c(c(O)c1C2=O)C[C@@](O)(C(C)=O)C[C@@H]3O[C@H]1C[C@H](N)[C@H](O)[C@H](C)O1` [Daunorubicin, 5,12-Naphthacenedione, (8S-cis)-8-acetyl-10-[(3-amino-2,3,6-trideoxy-α-L-lyxo-hexanopyranosyl)oxy]-7,8,9,10-tetrahydro-6,8,11-trihydroxy-10-methoxy-, hydrochloride], the oral absorption entry in series [2] (in vivo) is “poor”. Also, the elimination half-life entry in [2] is listed as “about 19 hr”.
Regarding `COc1cccc2c1C(=O)c1c(O)c3c(c(O)c1C2=O)C[C@@](O)(C(=O)CO)C[C@@H]3O[C@H]1C[C@H](N)[C@H](O)[C@H](C)O1` [Doxorubicin, 5,12-Naphthacenedione, (8s-cis)-10-[(3-amino-2,3,6-trideoxy-α-L-lyxo-hexopyranosyl)oxy]-7,8,9,10-tetrahydro-6,8,11-trihydroxy-8-(hydroxyacetyl)-1-methoxy-hydrochloride], in series [2] (in vivo), the oral absorption result is “absorbed poorly” and the “secreted into the bile” value was “Forty to 50”. The elimination half-life entry in series [2] is given as “about 30 hr”.
For `O=NN(CCCl)C(=O)NC1CCCCC1` [Lomustine, 1-(2-chloro-ethyl)-3-cyclohexyl-1 nitrosourea], the “radioactivity excreted as degradation products within 24 hours” value in series [2] (oral radioactive drug, 30 mg/m^2 to 100 mg/m^2) is “about half”. Also, in [9] (absolute alcohol), the “solubility in absolute alcohol” value was 70 mg per ml. Besides, the solubility in water in series [9] (water) is less than 0.05 mg per ml.
Take `CO[C@@]12[C@H](COC(N)=O)C3=C(C(=O)C(C)=C(N)C3=O)N1C[C@@H]1N[C@@H]12` [Mitomycin]: the “dose excreted unchanged in the urine” value in [10] is listed as “Approximately 10%”.
Turning to DRVYVHPF, on Src [11], the Ki was 3100 µM.
EEIYGEFE: the Ki on Src [11] was 70 µM.
EFEYAFF: the Ki on Src [11] was 130 µM.
Turning to KKSRGDYMTMQIG, on Src [11], the Ki is 200 µM.
Turning to RDRVYVHPF, the Ki on Src [11] is 2600 µM.
RRLIEDAEYAARG: the Ki at Src [11] is 10000 µM.
As for YIYGSFK, the Ki at Src [11] is 1600 µM.
